Reference: US9493444B2 (Merck Patent GmbH, priority 2012, dated 2016)

What follows are molecules tested on Wnt pathway (TCF-dependent transcription in HEK293 luciferase reporter cell line with ER-DSH construct) (assay: Cellular assay for Wnt pathway activity (luciferase reporter)). Settings: Homo sapiens; Wnt pathway inhibition, HEK293 luciferase reporter cells (ER-DSH, TCF promoter), 24 hours incubation, estrogen-induced.
Assay type: cell-based
Method in brief: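 Compounds (30 μM down to 1 nM) were incubated 24 h on cells induced for TCF-dependent transcription with estrogen. Luciferase activity was read by luminescence, normalized to untreated vehicle control, and fitted for IC50.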

First: CSc1cccc(Oc2cncc(N(C)CCN(C)C(=O)CF)n2)c1 [Compound 76, 2-Fluoro-N-methyl-N-(2-{methyl-[6-(3-methyl-sulfanyl-phenoxy)-pyrazin-2-yl]-amino}-ethyl)-acetamide]
Second: CSc1cccc(Oc2cncc(N(C)CCN(C)C(=O)C(F)F)n2)c1 [Compound 75, 2,2-Difluoro-N-methyl-N-(2-{methyl-[6-(3-methyl-sulfanyl-phenoxy)-pyrazin-2-yl]-amino}-ethyl)-acetamide]
The IC50 of the first is lower: 0.2 to 1 µM for the first, 1 to 10 µM for the second. The first is the more potent here.

First: CC(=O)N(C)CCCc1cncc(Oc2ccc(-c3ccc(C)cn3)cc2F)n1 [Compound 268, N-(3-{6-[2-Fluoro-4-(5-methyl-pyridin-2-yl)-phenoxy]-pyrazin-2-yl}-propyl)-N-methyl-acetamide]
Second: CC(=O)N(C)CCCc1cncc(Oc2ccc(-c3ccc(C)cn3)cc2)n1 [Compound 215, N-Methyl-N-(3-{6-[4-(5-methyl-pyridin-2-yl)-phenoxy]-pyrazin-2-yl}-propyl)-acetamide]
The IC50 of the first is lower: less than 0.2 µM for the first, 0.2 to 1 µM for the second.

First: CC(=O)N(C)CCCc1cncc(Oc2ccc(-c3ccc(N4CCOCC4)nc3)cc2F)n1 [Compound 267, N-(3-{6-[2-Fluoro-4-(6-morpholin-4-yl-pyridin-3-yl)-phenoxy]-pyrazin-2-yl}-propyl)-N-methyl-acetamide]
Second: CC(=O)N(C)CCN(C)c1cncc(Oc2ccc(-c3ccc(N4CCOCC4)nc3)cc2F)n1 [Compound 239, N-[2-({6-[2-Fluoro-4-(6-morpholin-4-yl-pyridin-3-yl)-phenoxy]-pyrazin-2-yl}-methyl-amino)-ethyl]-N-methyl-acetamide]
The IC50 of the first is higher: 0.2 to 1 µM for the first, less than 0.2 µM for the second.

`O=C1CCCCN1CCNc1cncc(Oc2ccc(-c3ccc(CO)nc3)cc2)n1` [Compound 292, 1-(2-{6-[4-(6-Hydroxy-methyl-pyridin-3-yl)-phenoxy]-pyrazin-2-ylamino}-ethyl)-piperidin-2-one] and `O=C1CCCCN1CCNc1cncc(Oc2ccc(-c3ccc(N4CCOCC4)nc3)cc2)n1` [Compound 295, 1-(2-{6-[4-(6-Morpholin-4-yl-pyridin-3-yl)-phenoxy]-pyrazin-2-ylamino}-ethyl)-piperidin-2-one] cannot be ordered by IC50: less than 0.2 µM for the first, less than 0.2 µM for the second.

`CS(=O)(=O)c1cncc(-c2ccc(Oc3cncc(NCCC(N)=O)n3)cc2)c1` [Compound 300, 3-{6-[4-(5-Methane-sulfonyl-pyridin-3-yl)-phenoxy]-pyrazin-2-ylamino}-propionamide] and `CC(=O)N(C)CCNc1cncc(Oc2ccc(-c3ccnc(C#N)c3)cc2)n1` [Compound 288, N-(2-{6-[4-(2-Cyano-pyridin-4-yl)-phenoxy]-pyrazin-2-ylamino}-ethyl)-N-methyl-acetamide] cannot be ordered by IC50: no less than 10 µM for the first, 1 to 10 µM for the second.

First: CC(=O)N(C)CCN(C)c1cncc(Oc2ccc(S(N)(=O)=O)cc2)n1 [Compound 101, N-Methyl-N-(2-[methyl-[6-(4-sulfamoyl-phenoxy)-pyrazin-2-yl]-amino}-ethyl)-acetamide]
Second: CC(=O)N(C)CCN(C)c1cncc(Oc2ccc(CC#N)cc2)n1 [Compound 142, N-(2-{[6-(4-Cyano-methyl-phenoxy)-pyrazin-2-yl]-methyl-amino}-ethyl)-N-methyl-acetamide]
The IC50 of the first is higher: 0.2 to 1 µM for the first, less than 0.2 µM for the second. The second is the more potent here.

First: CC(=O)N(C)CCCc1cc(Oc2ccc(-c3cccc(N4CCN(C)CC4)n3)cc2)c[n+]([O-])c1 [Compound 314, N-Methyl-N-[3-(5-{4-[6-(4-methyl-piperazin-1-yl)-pyridin-2-yl]-phenoxy}-1-oxy-pyridin-3-yl)-propyl]-acetamide]
Second: CC(=O)N(C)CCCc1cncc(Oc2ccc(-c3ccc(N4CCOCC4)nc3)cc2)n1 [Compound 216, N-Methyl-N-(3-{6-[4-(6-morpholin-4-yl-pyridin-3-yl)-phenoxy]-pyrazin-2-yl}-propyl)-acetamide]
The IC50 of the first is higher: 1 to 10 µM for the first, 0.2 to 1 µM for the second. The second is the more potent here.

`CC(=O)N(C)CCN(C)c1cncc(Oc2ccc(-c3ccc(N)nc3)c(F)c2F)n1` [Compound 280, N-[2-({6-[4-(6-Amino-pyridin-3-yl)-2,3-difluoro-phenoxy]-pyrazin-2-yl}-methyl-amino)-ethyl]-N-methyl-acetamide] and `CC(=O)N(C)CCN(C)c1cncc(Oc2ccc(-c3cccnc3)c(F)c2F)n1` [Compound 279, N-(2-{[6-(2,3-Difluoro-4-pyridin-3-yl-phenoxy)-pyrazin-2-yl]-methyl-amino}-ethyl)-N-methyl-acetamide] cannot be ordered by IC50: less than 0.2 µM for the first, less than 0.2 µM for the second.

`C#CCOC(=O)Nc1ccc(-c2ccc(Oc3cncc(N(C)CCN(C)C(C)=O)n3)cc2)nc1` [Compound 244, {6-[4-(6-{[2-(Acetyl-methyl-amino)-ethyl]-methyl-amino}-pyrazin-2-yloxy)-phenyl]-pyridin-3-yl}-carbamic acid prop-2-ynyl ester] and `CC(=O)N(C)CCN(C)c1cncc(Oc2ccc(-c3cccc(C#N)n3)cc2)n1` [Compound 200, N-[2-({6-[4-(6-Cyano-pyridin-2-yl)-phenoxy]-pyrazin-2-yl}-methyl-amino)-ethyl]-N-methyl-acetamide] cannot be ordered by IC50: less than 0.2 µM for the first, less than 0.2 µM for the second.

First: CC(=O)N(C)CCN(C)c1cncc(Oc2ccc(N3CCCCC3=O)cc2)n1 [Compound 86, N-Methyl-N-[2-(methyl-{6-[4-(2-oxo-piperidin-1-yl)-phenoxy]-pyrazin-2-yl}-amino)-ethyl]-acetamide]
Second: CC(=O)N(C)CCN(C)c1cncc(Oc2ccc3c(c2)CCC3)n1 [Compound 92, N-(2-{[6-(Indan-5-yloxy)-pyrazin-2-yl]-methyl-amino}-ethyl)-N-methyl-acetamide]
The IC50 of the first is higher: 0.2 to 1 µM for the first, less than 0.2 µM for the second.

`COc1ccc(Oc2cncc(N3CCCC(CNC(C)=O)C3)n2)cc1` (centres unmarked) [Compound 49, N-{1-[6-(4-Methoxy-phenoxy)-pyrazin-2-yl]-piperidin-3-ylmethyl}-acetamide] and `CCNC(=O)N(C)CCN(C)c1cncc(Oc2ccc(OC)cc2)n1` [Compound 69, 3-Ethyl-1-(2-{[6-(4-methoxy-phenoxy)-pyrazin-2-yl]-methyl-amino}-ethyl)-1-methyl-urea] fall in the same range of IC50: 1 to 10 µM for the first, 1 to 10 µM for the second.

`CC(=O)Nc1ccc(-c2ccc(Oc3cncc(NCCN(C)C(C)=O)n3)c(F)c2)cn1` [Compound 258, N-[5-(4-{6-[2-(Acetyl-methyl-amino)-ethylamino]-pyrazin-2-yloxy}-3-fluoro-phenyl)-pyridin-2-yl]-acetamide] and `COc1cc(-c2ccc(Oc3cncc(N(C)CCN(C)C(C)=O)n3)cc2)ccn1` [Compound 194, N-[2-({6-[4-(2-Methoxy-pyridin-4-yl)-phenoxy]-pyrazin-2-yl}-methyl-amino)-ethyl]-N-methyl-acetamide] fall in the same range of IC50: 0.2 to 1 µM for the first, 0.2 to 1 µM for the second.

First: CN(CCC1(O)CCCC1)c1cncc(Oc2ccc(F)cc2)n1 [Compound 283, 1-(2-{[6-(4-Fluoro-phenoxy)-pyrazin-2-yl]-methyl-amino}-ethyl)-cyclopentanol]
Second: CN(CCC(N)=O)c1cncc(Oc2ccc(F)cc2)n1 [Compound 156, 3-{[6-(4-Fluoro-phenoxy)-pyrazin-2-yl]-methyl-amino}-propion-amide]
The IC50 of the first is lower: 0.2 to 1 µM for the first, 1 to 10 µM for the second. The first is the more potent here.

Compared with `O=C1NCCN1CCNc1cncc(Oc2ccc(F)cc2)n1` [Compound 278, 1-{2-[6-(4-Fluoro-phenoxy)-pyrazin-2-ylamino]-ethyl}-imidazolidin-2-one], `Cc1ccc(-c2ccc(Oc3cncc(NCCN4CCCC4=O)n3)cc2)nc1` [Compound 196, 1-(2-{6-[4-(5-Methyl-pyridin-2-yl)-phenoxy]-pyrazin-2-ylamino}-ethyl)-pyrrolidin-2-one] is lower in IC50: 0.2 to 1 µM for the first, less than 0.2 µM for the second. The second is the more potent here.

`CC(=O)N(C)CCN(C)c1cncc(Oc2ccc(Cl)cc2Cl)n1` [Compound 96, N-(2-{[6-(2,4-Dichloro-phenoxy)-pyrazin-2-yl]-methyl-amino}-ethyl)-N-methyl-acetamide] and `CC(=O)N(C)CCN(C)c1cncc(Oc2ccc(Cl)c(Cl)c2)n1` [Compound 89, N-(2-{[6-(3,4-Dichloro-phenoxy)-pyrazin-2-yl]-methyl-amino}-ethyl)-N-methyl-acetamide] fall in the same range of IC50: 0.2 to 1 µM for the first, 0.2 to 1 µM for the second.

First: CC(=O)N(C)CCN(C)c1cncc(Oc2ccc(-c3cc(C(F)(F)F)ccn3)cc2)n1 [Compound 128, N-Methyl-N-[2-(methyl-{6-[4-(4-trifluoro-methyl-pyridin-2-yl)-phenoxy]-pyrazin-2-yl}-amino)-ethyl]-acetamide]
Second: CC(=O)N(C)CCN(C)c1cncc(Oc2ccc(-c3cc4ccccc4cn3)cc2)n1 [Compound 166, N-(2-{[6-(4-Isoquinolin-3-yl-phenoxy)-pyrazin-2-yl]-methyl-amino}-ethyl)-N-methyl-acetamide]
The IC50 of the first is higher: 1 to 10 µM for the first, 0.2 to 1 µM for the second. The second is the more potent here.

First: CC(=O)N(C)CCN(C)c1cncc(OC2CCCC2)n1 [Compound 43, N-{2-[(6-Cyclo-pentyloxy-pyrazin-2-yl)-methyl-amino]-ethyl}-N-methyl-acetamide]
Second: CC(=O)N(C)CCN(C)c1cncc(Oc2ccc(C3CCC(C)CO3)cc2)n1 (centres unmarked) [Compound 179, N-Methyl-N-[2-(methyl-{6-[4-(5-methyl-tetrahydro-pyran-2-yl)-phenoxy]-pyrazin-2-yl}-amino)-ethyl]-acetamide]
The IC50 of the first is higher: 1 to 10 µM for the first, less than 0.2 µM for the second.

`CC(=O)N(C)CCN(C)c1cncc(Oc2cnn(-c3cccc(C(F)(F)F)c3)c2)n1` [Compound 222, N-Methyl-N-[2-(methyl-{6-[1-(3-trifluoromethyl-phenyl)-1H-pyrazol-4-yloxy]-pyrazin-2-yl}-amino)-ethyl]-acetamide] and `CC(=O)N(C)CCOc1cncc(Oc2ccc(F)cc2)n1` [Compound 188, N-{2-[6-(4-Fluoro-phenoxy)-pyrazin-2-yloxy]-ethyl}-N-methyl-acetamide] fall in the same range of IC50: 1 to 10 µM for the first, 1 to 10 µM for the second.

`CC(=O)N(CCN(c1cncc(Oc2ccc(F)cc2)n1)C(C)C)C(C)C` [Compound 168, N-(2-{[6-(4-Fluoro-phenoxy)pyrazin-2-yl]-isopropyl-amino}-ethyl)-N-isopropyl-acetamide] and `CC(=O)N(C)CCCc1cncc(Oc2ccc(-c3cnc(N)cn3)cc2)c1` [Compound 323, N-(3-{5-[4-(5-Amino-pyrazin-2-yl)-phenoxy]-pyridin-3-yl}-propyl)-N-methyl-acetamide] fall in the same range of IC50: 0.2 to 1 µM for the first, 0.2 to 1 µM for the second.
